SMILES strings stand for the structures. Changes are numbered by the printed parent chain.

Five molecules from US12583855B2, “RET selective inhibitor, preparation method therefor and use thereof” (SHOUYAO HOLDINGS (BEIJING) CO., LTD., priority 2019, dated 2026) can be followed below.

One data set has as its target T1, RET^WT (Homo sapiens, UniProt P07949).
T1 construct: GST-RET^WT (658-1114 aa, final concentration of 0.5 nM)
T1 sequence (P07949 658-1114): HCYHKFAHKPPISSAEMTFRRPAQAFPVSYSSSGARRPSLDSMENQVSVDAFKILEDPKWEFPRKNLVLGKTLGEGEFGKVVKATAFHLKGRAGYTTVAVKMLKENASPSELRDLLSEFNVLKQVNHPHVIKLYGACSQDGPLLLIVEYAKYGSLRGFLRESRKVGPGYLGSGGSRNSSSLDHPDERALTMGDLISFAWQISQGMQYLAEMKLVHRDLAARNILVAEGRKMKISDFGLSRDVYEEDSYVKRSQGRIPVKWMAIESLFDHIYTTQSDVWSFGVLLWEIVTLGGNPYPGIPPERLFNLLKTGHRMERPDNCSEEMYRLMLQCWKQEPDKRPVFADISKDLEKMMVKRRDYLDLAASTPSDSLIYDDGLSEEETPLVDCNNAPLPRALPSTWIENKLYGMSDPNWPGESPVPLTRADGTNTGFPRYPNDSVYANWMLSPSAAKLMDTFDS
As to the kind of experiment: In vitro enzymatic activity assay on RET^WT (HTRF). The class given is biochemical. Conditions: GST-RET^WT (658-1114 aa) 0.5 nM, ATP 25 μM. The essentials: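 Reaction run 2 h at 23 °C in HEPES pH 7.5 buffer with Na3VO4, MgCl2, DTT, Tween 20 and BSA; compounds tested at 7 concentrations (5-fold serial dilution in DMSO from 0.2 mM stock). HTRF detection with TK antibody and streptavidin-XL665; IC50 from curve fitting.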

The target in a further data set is T2, RET^V804M (Homo sapiens, UniProt P07949, V804M).
T2 construct: GST-RET^V804M (658-1114 aa, final concentration of 0.02 nM)
T2 sequence (P07949 658-1114 V804M): T1 sequence (P07949 658-1114) with V147M
As to the kind of experiment: In vitro enzymatic activity assay on RET^V804M (HTRF). The format is biochemical. Conditions: GST-RET^V804M (658-1114 aa) 0.02 nM, ATP 1.5 μM.

In another data set the target is VEGFR2 (Homo sapiens, UniProt P35968). As to the kind of experiment: In vitro enzymatic activity assay on VEGFR2 (HTRF). The class given is biochemical. Conditions: GST-VEGFR2 0.1 nM, ATP 2.5 μM. The essentials: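 GST-VEGFR2 (0.1 nM final) with 2.5 μM ATP and 1 μM TK peptide substrate in HEPES pH 7.5 buffer with Mg²⁺/Mn²⁺, 1.5 h at 23 °C. HTRF read-out (665/620 nm ratio) after adding TK antibody and streptavidin-XL665. IC50 from 7-point, 5-fold dilution series.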

The subject of a further data set is TT cells. As to the kind of experiment: TT cell proliferation activity (Cell-Titer Glo). The class given is cell-based. Conditions: TT human thyroid carcinoma cells, 120 h. The gist of the method:
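Human thyroid carcinoma TT cells, plated 5000/well a day prior, were exposed 120 h at 37 °C to ten 3-fold compound dilutions (10 mM DMSO stock top). Cell-Titer Glo luminescence gave IC50 for proliferation inhibition.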

In another data set the test system is KIF5B-RET/HEK293T cells. As to the kind of experiment: Cell proliferation activity in KIF5B-RET/HEK293T cells (Cell-Titer Glo). The class given is cell-based. Conditions: Homo sapiens, HEK-293T, 72 h, read-out: KIFSB-RETV^804M/293T (Cell)IC50.
Data set [1] in a line: Pharmacokinetic data of compounds in male SD rats. The class given is in vivo. Conditions: rat, po, intragastric, 5 mg/kg, suspension MC 0.5%, plasma. The procedure:
6. Pharmacokinetic Data of Compounds
Male SD rats (Beijing Vital River Laboratory Animal Technology Co., Ltd) were divided into groups. 3 in each group, received intragastric administration with the suspension of the test sample (5 mg/kg, suspensions MC 0.5%), respectively. Animals were fasted overnight prior to the experiment from 10 h before dosing to 4 h after dosing. Blood was collected 0.25, 0.5, 1, 2, 4, 6, 8, and 24 h after administration, respectively. After isoflurane anesthesia using a small animal anesthesia machine, 0.3 mL of whole blood samples was taken through the fundus venous plexus, placed in a heparin anticoagulant tube, and were centrifuged at 4° C. 4000 rpm for 5 min plasma was transferred to the centrifuge tube, and stored at −80° C. until analysis. Samples in the plasma were extracted using protein precipitation and the extracts were analyzed by LC/MS.

Sequence of VEGFR2 (P35968 20-1356): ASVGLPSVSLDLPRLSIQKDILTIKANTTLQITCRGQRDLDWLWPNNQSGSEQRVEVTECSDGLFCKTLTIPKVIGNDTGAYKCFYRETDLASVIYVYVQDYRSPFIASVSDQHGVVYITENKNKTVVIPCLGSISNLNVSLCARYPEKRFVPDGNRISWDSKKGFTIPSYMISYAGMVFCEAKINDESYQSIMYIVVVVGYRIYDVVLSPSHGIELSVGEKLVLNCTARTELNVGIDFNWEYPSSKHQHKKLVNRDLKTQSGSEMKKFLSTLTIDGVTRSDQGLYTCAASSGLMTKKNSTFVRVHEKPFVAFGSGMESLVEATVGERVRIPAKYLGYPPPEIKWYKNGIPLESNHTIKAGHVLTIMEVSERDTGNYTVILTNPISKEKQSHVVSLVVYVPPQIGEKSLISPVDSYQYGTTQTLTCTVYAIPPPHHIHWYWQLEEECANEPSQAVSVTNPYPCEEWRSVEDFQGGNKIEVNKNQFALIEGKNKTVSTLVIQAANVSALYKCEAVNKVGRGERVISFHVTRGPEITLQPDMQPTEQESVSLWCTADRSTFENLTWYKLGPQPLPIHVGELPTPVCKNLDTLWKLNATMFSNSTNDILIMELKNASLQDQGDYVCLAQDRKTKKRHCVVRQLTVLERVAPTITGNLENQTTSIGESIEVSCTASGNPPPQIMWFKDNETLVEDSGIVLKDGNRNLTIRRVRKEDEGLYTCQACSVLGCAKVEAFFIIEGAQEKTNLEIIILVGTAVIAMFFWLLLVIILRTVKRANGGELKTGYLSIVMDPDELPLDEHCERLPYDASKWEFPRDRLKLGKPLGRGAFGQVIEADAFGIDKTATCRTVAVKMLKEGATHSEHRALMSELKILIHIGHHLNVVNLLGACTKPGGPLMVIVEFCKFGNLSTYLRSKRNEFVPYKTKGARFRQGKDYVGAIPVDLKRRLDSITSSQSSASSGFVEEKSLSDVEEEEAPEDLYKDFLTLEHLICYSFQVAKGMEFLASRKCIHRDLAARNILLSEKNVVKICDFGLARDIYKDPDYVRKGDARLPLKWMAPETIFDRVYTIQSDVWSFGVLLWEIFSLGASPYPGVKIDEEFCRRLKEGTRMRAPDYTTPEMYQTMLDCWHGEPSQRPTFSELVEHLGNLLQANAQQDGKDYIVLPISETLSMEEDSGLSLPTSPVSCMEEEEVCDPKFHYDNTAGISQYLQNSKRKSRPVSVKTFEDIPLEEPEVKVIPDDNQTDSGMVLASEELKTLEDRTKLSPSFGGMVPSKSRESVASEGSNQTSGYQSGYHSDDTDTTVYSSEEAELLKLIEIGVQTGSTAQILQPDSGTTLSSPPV

As for `CSc1ccc(CN2C3CC2CN(c2ccc(-c4cc(-c5cnn(C(F)F)c5)cn5ncc(C#N)c45)cn2)C3)cn1` [Example 60, 6-(1-(difluoromethyl)-1Hpyrazol-4-yl)-4-(6-(6-((6-(methylthio)pyridin-3-yl)methyl)-3,6-diazabicyclo[3.1.1]heptan-3-yl)pyridin-3-yl)pyrazolo[1,5-a]pyridine-3-carbonitrile], the IC50 against RET^WT came out at 0.103 nM; against RET^V804M, 0.593 nM; against VEGFR2, 3.1 nM; in the data set with TT cells, 18.5 nM; in the data set on KIF5B-RET/HEK293T cells it was 281 nM. In addition, the total exposure AUC(0-inf) in data set [1] amounted to 14700 ng·h/mL. In data set [1], this molecule registered a Cmax of 1140 ng/mL. Further, the time of peak concentration (Tmax) in data set [1] came out at 1.5 h. Moreover, the half-life in data set [1] is 7.45 h.

As to `COc1ccc(CN2C3CC2CN(c2ccc(-c4cc(N5CC(C)(O)C5)cn5ncc(C#N)c45)cn2)C3)cn1` [Example 7, 6-(3-hydroxy-3-methylazetidin-1-yl)-4-(6-(6-((6-methoxypyridin-3-yl)methyl)-3,6-diazabicyclo[3.1.1]heptan-3-yl)pyridin-3-yl)pyrazolo[1,5-a]pyridine-3-carbonitrile], the IC50 on RET^WT was determined as 0.601 nM; at VEGFR2, 9.67 nM; in the data set with TT cells, 7.41 nM; in the data set on KIF5B-RET/HEK293T cells, 99.1 nM. In data set [1], this molecule returned an AUC(0-inf) of 12600 ng·h/mL. Besides, the Cmax in data set [1] worked out at 1460 ng/mL. Also, the Tmax in data set [1] turned out to be 2 h. The molecule further showed a half-life in data set [1] of 3.53 h.

As for `CC1(O)CN(c2cc(-c3ccc(N4CC5CC(C4)N5Cc4cccc(S(C)(=O)=O)c4)nc3)c3c(C#N)cnn3c2)C1` [Example 65, 6-(3-hydroxy-3-methylazetidin-1-yl)-4-(6-(6-(3-(methylsulfonyl)benzyl)-3,6-diazabicyclo[3.1.1]heptan-3-yl)pyridin-3-yl)pyrazolo[1,5-a]pyridine-3-carbonitrile], the IC50 at RET^WT was 0.67 nM; against RET^V804M, 1.85 nM; at VEGFR2, 19.4 nM; in the data set with TT cells, 24.1 nM; in the data set on KIF5B-RET/HEK293T cells it was 349 nM.

Consider `CN(C)C(=S)N1CCN(c2ccc(-c3cc(-c4cnn(C)c4)cn4ncc(C#N)c34)cn2)CC1` [Example 8, 4-(5-(3-cyano-6-(1-methyl-1Hpyrazol-4-yl)pyrazolo[1,5-a]pyridine-4-yl)pyridin-2-yl)-N,N-dimethylpiperazin-1-carbothioamide], for which the IC50 is 0.863 nM on RET^WT; 0.908 nM against RET^V804M; 9.15 nM against VEGFR2; 14 nM in the data set on TT cells; 162 nM in the data set on KIF5B-RET/HEK293T cells.

For the molecule `CSc1ccc(CN2CCN(c3ccc(-c4cc(-c5cnn(C)c5)cn5ncc(C#N)c45)cn3)CC2)nc1` [Example 9, 6-(1-methyl-1Hpyrazol-4-yl)-4(6-(4-((5-(methylthio)pyridin-2-yl)methyl)piperazin-1-yl)pyridin-3-yl)pyrazolo[1,5-a]pyridine-3-carbonitrile], the IC50 is 0.565 nM against RET^WT; 1.22 nM at RET^V804M; 10 nM against VEGFR2; 37.3 nM in the data set on TT cells; 371 nM with KIF5B-RET/HEK293T cells. For the same molecule, the area under the curve AUC(0-inf) in data set [1] came to 8290 ng·h/mL. This molecule had a Cmax in data set [1] of 1660 ng/mL. For the same molecule, the Tmax in data set [1] stood at 2.17 h. In data set [1], this molecule had a half-life of 2.02 h.
